The values that follow come from PMC10574094, “Discovery of a SHP2 Degrader with In Vivo Anti-Tumor Activity” (Molecules, 2023).

A word on the IC50: it is the concentration at which inhibition is half-maximal. A high value points to weaker potency in that assay.

The experiment addresses T1, full-length SHP2 (1-528) (Homo sapiens, UniProt Q06124).
T1 construct: The SHP2 protein (Aa 1–528) was cloned into a pET-21a(+) vector; His; made in house; host or cells: E. coli BL21(DE3)
T1 sequence (Q06124 1-528): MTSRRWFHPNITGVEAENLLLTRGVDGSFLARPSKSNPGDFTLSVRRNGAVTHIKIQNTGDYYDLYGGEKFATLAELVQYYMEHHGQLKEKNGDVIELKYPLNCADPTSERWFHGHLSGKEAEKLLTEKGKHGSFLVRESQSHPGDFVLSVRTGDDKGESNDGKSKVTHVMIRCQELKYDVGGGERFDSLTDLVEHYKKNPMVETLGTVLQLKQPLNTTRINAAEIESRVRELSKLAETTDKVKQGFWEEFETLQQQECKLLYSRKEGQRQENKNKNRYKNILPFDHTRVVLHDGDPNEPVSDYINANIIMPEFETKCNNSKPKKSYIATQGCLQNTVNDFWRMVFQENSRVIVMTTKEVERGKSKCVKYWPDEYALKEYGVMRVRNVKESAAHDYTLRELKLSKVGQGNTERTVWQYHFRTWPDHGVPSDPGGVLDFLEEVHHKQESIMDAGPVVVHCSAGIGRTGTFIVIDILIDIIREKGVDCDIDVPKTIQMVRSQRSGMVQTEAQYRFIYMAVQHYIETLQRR
The experiment in a line: SHP2 allosteric inhibition assay (DiFMUP substrate). The experiment is classed as biochemical.

For the compound `Cc1ncsc1-c1ccc([C@H](C)NC(=O)[C@@H]2C[C@@H](O)CN2C(=O)[C@@H](NC(=O)CCCCCCCCCN2CCN(C(=O)CCCCCC3(CN)CCN(c4cnc(Sc5cccc(Cl)c5Cl)c(N)n4)CC3)CC2)C(C)(C)C)cc1` [P9, (2S,4R)-1-((S)-2-(10-(4-(6-(1-(6-amino-5-((2,3-dichlorophenyl)thio)pyrazin-2-yl)-4-(aminomethyl)piperidin-4-yl)hexanoyl)piperazin-1-yl)decanamido)-3,3-dimethylbutanoyl)-4-hydroxy-N-((S)-1-(4-(4-methylthiazol-5-yl)phenyl)ethyl)pyrrolidine-2-carboxamide], for the setting “Table S3, relative to SHP2”, the “Fold selectivity (SHP2)” value turned out to be 1. Moreover, where the note is “full length SHP2, enzymatic assay”, the IC50 was 95 ± 3.4 nM.
